Test results published in patent US20060069132A1, “Azolecarboxamide herbicides” (priority 2004, published 2006).

Experiments:
Surinam grass = assay: Test C pre-/postemergence herbicide test; type: in vivo, Urochloa decumbens; settings: preemergence
How it was run: (§1)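 Pre/post spray; non-phytotoxic solvent + surfactant. Post-timing 1–4 leaves, 2–18 cm. Read-out: visual % control vs untreated, day 12–14, greenhouse.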

cocklebur = assay: Test C pre-/postemergence herbicide test; type: in vivo, Xanthium strumarium; settings: preemergence
How it was run: as §1

giant foxtail = assay: Test C pre-/postemergence herbicide test; type: in vivo, Setaria faberi; settings: preemergence
How it was run: as §1

johnsongrass = assay: Test C pre-/postemergence herbicide test; type: in vivo, Sorghum halepense; settings: preemergence
How it was run: as §1

morningglory = assay: Test C pre-/postemergence herbicide test; type: in vivo, Ipomoea coccinea; parameters: key to Plant response rating, Morningglory: 0 = no effect, 100 = complete control; settings: preemergence
How it was run: as §1

eastern black nightshade = assay: Test C pre-/postemergence herbicide test; type: in vivo, Solanum ptycanthum; settings: preemergence
How it was run: as §1

yellow nutsedge = assay: Test C pre-/postemergence herbicide test; type: in vivo, Cyperus esculentus; settings: preemergence
How it was run: as §1

ducksalad = assay: Test C flooded paddy test; type: in vivo, Heteranthera limosa; settings: for Plant response rating, Ducksalad: 500 g ai/ha, visual rating after 12 to 14 days
barnyardgrass = assay: Test C flooded paddy test; type: in vivo, Echinochloa crus-galli; settings: for Plant response rating, Barnyardgrass: 500 g ai/ha, visual rating after 12 to 14 days
How it was run: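 Plants were grown to the 1- to 4-leaf stage (2–18 cm) and then treated postemergence, or grown to the 2-leaf stage for the flooded paddy test. They were held in a greenhouse for 12 to 14 days and then scored by eye against controls, where 0 is no effect and 100 is complete control.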

[1] = 500 g ai/ha, scale 0 to 100 (0 no effect, 100 complete control), visual, 12 to 14 days
[2] = 125 g ai/ha, scale 0 to 100 (0 no effect, 100 complete control)
[3] = 250 g ai/ha, scale of 0 to 100, 0 is no effect, 100 is complete control
[4] = scale 0 to 100 (0 no effect, 100 complete control)
[5] = 62 g ai/ha, scale 0 to 100 (0 no effect, 100 complete control)
[6] = 125 g ai/ha, scale 0 (no effect) to 100 (complete control), visual, 12 to 14 days
[7] = 125 g ai/ha, scale of 0 to 100, 0 is no effect, 100 is complete control

CCC1=NN(C(C)(C)C)CC1C(=O)Nc1cc(C(=O)N(C)CC)ccc1F (racemic) [Compound 342]
Plant response rating, Surinam Grass (Surinam grass; 62 g ai/ha, scale 0 to 100): 40
Plant response rating (0 = no effect, 100 = complete control), Surinam Grass (Surinam grass; 125 g ai/ha): 90
Plant response rating, Surinam Grass (Surinam grass; 250 g ai/ha, scale 0-100): 100
Plant response rating, Surinam Grass (Surinam grass; [1]): 100
Plant response rating, Cocklebur (cocklebur; 62 g ai/ha, scale 0 to 100): 10
Plant response rating (0 = no effect, 100 = complete control), Cocklebur (cocklebur; 125 g ai/ha): 30
Plant response rating, Cocklebur (cocklebur; 250 g ai/ha, scale 0-100): 60
Plant response rating, Cocklebur (cocklebur; [1]): 100
Plant response rating, Foxtail, Giant (giant foxtail; 62 g ai/ha, scale 0 to 100): 0
Plant response rating (0 = no effect, 100 = complete control), Foxtail, Giant (giant foxtail; 125 g ai/ha): 40
Plant response rating, Foxtail, Giant (giant foxtail; 250 g ai/ha, scale 0-100): 55
Plant response rating, Foxtail, Giant (giant foxtail; [1]): 70
Plant response rating, Johnsongrass (johnsongrass; 62 g ai/ha, scale 0 to 100): 55
Plant response rating (0 = no effect, 100 = complete control), Johnsongrass (johnsongrass; 125 g ai/ha): 100
Plant response rating, Johnsongrass (johnsongrass; 250 g ai/ha, scale 0-100): 100
Plant response rating, Johnsongrass (johnsongrass; [1]): 100
Plant response rating, Morningglory (morningglory; 62 g ai/ha, scale 0 to 100): 0
Plant response rating (0 = no effect, 100 = complete control), Morningglory (morningglory; 125 g ai/ha): 5
Plant response rating, Morningglory (morningglory; 250 g ai/ha, scale 0-100): 70
Plant response rating, Morningglory (morningglory; [1]): 100
Plant response rating, Nightshade (eastern black nightshade; 62 g ai/ha, scale 0 to 100): 60
Plant response rating (0 = no effect, 100 = complete control), Nightshade (eastern black nightshade; 125 g ai/ha): 80
Plant response rating, Nightshade (eastern black nightshade; 250 g ai/ha, scale 0-100): 80
Plant response rating, Nightshade (eastern black nightshade; [1]): 85
Plant response rating, Nutsedge, Yellow (yellow nutsedge; 62 g ai/ha, scale 0 to 100): 0
Plant response rating (0 = no effect, 100 = complete control), Nutsedge, Yellow (yellow nutsedge; 125 g ai/ha): 0
Plant response rating, Nutsedge, Yellow (yellow nutsedge; 250 g ai/ha, scale 0-100): 40
Plant response rating, Nutsedge, Yellow (yellow nutsedge; [1]): 60
Ducksalad plant response rating (ducksalad; 62 g ai/ha, scale 0 to 100): 50
Ducksalad plant response rating (ducksalad; [2]): 50
Ducksalad plant response rating (ducksalad; [3]): 80
Plant response rating, Ducksalad (ducksalad; [4]): 80
Barnyardgrass plant response rating (barnyardgrass; [5]): 20
Barnyardgrass plant response rating (barnyardgrass; [2]): 20
Barnyardgrass plant response rating (barnyardgrass; [3]): 50
Plant response rating, Barnyardgrass (barnyardgrass; [4]): 60

CCC(=NO)c1cccc(NC(=O)c2cc(C(C)(C)C)nn2C)c1 [Compound 118]
Plant response rating, Surinam Grass (Surinam grass; 31 g ai/ha, scale 0 to 100): 20
Plant response rating, Surinam Grass (Surinam grass; [6]): 20
Plant response rating, Cocklebur (cocklebur; 31 g ai/ha, scale 0 to 100): 0
Plant response rating (0 = no effect, 100 = complete control), Cocklebur (cocklebur; 62 g ai/ha): 20
Plant response rating, Cocklebur (cocklebur; [6]): 20
Plant response rating, Foxtail, Giant (giant foxtail; 31 g ai/ha, scale 0 to 100): 0
Plant response rating (0 = no effect, 100 = complete control), Foxtail, Giant (giant foxtail; 62 g ai/ha): 0
Plant response rating, Foxtail, Giant (giant foxtail; [6]): 10
Plant response rating, Johnsongrass (johnsongrass; 31 g ai/ha, scale 0 to 100): 30
Plant response rating (0 = no effect, 100 = complete control), Johnsongrass (johnsongrass; 62 g ai/ha): 40
Plant response rating, Johnsongrass (johnsongrass; [6]): 100
Plant response rating, Morningglory (morningglory; 31 g ai/ha, scale 0 to 100): 0
Plant response rating (0 = no effect, 100 = complete control), Morningglory (morningglory; 62 g ai/ha): 20
Plant response rating, Morningglory (morningglory; [6]): 30
Plant response rating, Nightshade (eastern black nightshade; 31 g ai/ha, scale 0 to 100): 60
Plant response rating (0 = no effect, 100 = complete control), Nightshade (eastern black nightshade; 62 g ai/ha): 100
Plant response rating, Nightshade (eastern black nightshade; [6]): 100
Plant response rating, Nutsedge, Yellow (yellow nutsedge; 16 g ai/ha, scale 0 to 100, last section of Table C): 0
Plant response rating, Nutsedge, Yellow (yellow nutsedge; 31 g ai/ha, scale 0 to 100): 0
Plant response rating (0 = no effect, 100 = complete control), Nutsedge, Yellow (yellow nutsedge; 62 g ai/ha): 0
Plant response rating, Nutsedge, Yellow (yellow nutsedge; [6]): 0
Ducksalad plant response rating (ducksalad; [5]): 0
Ducksalad plant response rating (ducksalad; [7]): 50
Ducksalad plant response rating (ducksalad; [3]): 50
Plant response rating, Ducksalad (ducksalad; [4]): 50
Barnyardgrass plant response rating (barnyardgrass; [5]): 0
Barnyardgrass plant response rating (barnyardgrass; [7]): 20
Barnyardgrass plant response rating (barnyardgrass; [3]): 20
Plant response rating, Barnyardgrass (barnyardgrass; [4]): 50
